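Values below derive from 48-hour exposures of cells grown in 96-well plates, with endpoints linearly interpolated between the two concentrations bracketing the appropriate inhibition level. GI50: concentration for 50% inhibition of growth.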 Calls of active or inactive are those of the source. Rule as the data show it: active = GI50 up to about 1.1 µM and inactive = higher.
Tests used:
Assay in all cases: NCI anticancer screen, dose series, 48 h
[1] = test system: 786-0
[2] = test system: CCRF-CEM
[3] = test system: EKVX
[4] = test system: HT-29
[5] = test system: IGROV-1
[6] = test system: K562
[7] = test system: Malme-3M
[8] = test system: NCI-H23
[9] = test system: NCI-H460
[10] = test system: OVCAR-8
[11] = test system: RPMI-8226
[12] = test system: SK-MEL-5
[13] = test system: SNB-75
[14] = test system: U-251
[15] = test system: UACC-257
[16] = test system: UACC-62
[17] = test system: HL-60
[18] = test system: OVCAR-3
[19] = test system: SF-295

Measured: GI50

COc1ccc(/N=C\c2cc(OC)c(OC)c(OC)c2)cc1
inactive: [1] > 100 µM | [2] 57.5 µM | [3] > 100 µM | [4] > 100 µM | [5] > 100 µM | [6] 33.7 µM | [7] > 100 µM | [8] > 100 µM | [9] 85.9 µM | [10] > 100 µM | [11] 18.7 µM | [12] > 100 µM | [13] > 100 µM | [14] > 100 µM | [15] > 100 µM | [16] 23.9 µM

O=C1NC2(CCCCC2)C2CCCCC(O)C12 (stereo unspecified)
inactive: [1] > 100 µM | [2] > 100 µM | [3] > 100 µM | [17] > 100 µM | [4] > 100 µM | [5] > 100 µM | [6] > 100 µM | [7] > 100 µM | [8] > 100 µM | [9] > 100 µM | [18] > 100 µM | [10] > 100 µM | [11] > 100 µM | [19] > 100 µM | [13] 57.1 µM | [14] > 100 µM | [15] > 100 µM | [16] > 100 µM

O=C1CCC2COc3ccc(O)c1c32 (stereo unspecified)
inactive: [2] > 100 µM | [3] 51.2 µM | [17] > 100 µM | [4] > 100 µM | [5] > 100 µM | [6] > 100 µM | [8] > 100 µM | [9] > 100 µM | [18] > 100 µM | [10] > 100 µM | [11] > 100 µM | [19] > 100 µM | [12] > 100 µM | [13] 77.6 µM | [14] > 100 µM | [15] > 100 µM | [16] > 100 µM

O=C1/C(=C/c2ccc(Oc3ccccc3)cc2)N=C(c2ccccc2)N1c1ccc(S(=O)(=O)Nc2nccs2)cc1
inactive: [1] 31.4 µM | [2] 26.2 µM | [3] 23.2 µM | [17] 6.73 µM | [4] 9.68 µM | [6] 7.48 µM | [7] 19.1 µM | [8] 32.7 µM | [9] 25.5 µM | [18] 17.3 µM | [11] 6.34 µM | [19] 22.8 µM | [12] 17.5 µM | [13] 7.53 µM | [14] 17.1 µM | [15] 21.3 µM | [16] 19.5 µM

COP(C)(=O)/C(Cc1ccccc1)=N\O (stereo unspecified)
inactive: [2] > 100 µM | [17] > 100 µM | [4] > 100 µM | [5] > 100 µM | [6] > 100 µM | [8] > 100 µM | [9] > 100 µM | [18] > 100 µM | [10] > 100 µM | [11] > 100 µM | [19] > 100 µM | [12] > 100 µM | [13] > 100 µM | [14] > 100 µM | [15] > 100 µM

O=C(O)C1(Cc2ccc3c(c2)CCC3)Cc2cc3c(cc2C1)CCC3
inactive: [1] > 100 µM | [2] > 100 µM | [3] > 100 µM | [17] > 100 µM | [4] > 100 µM | [5] > 100 µM | [6] > 100 µM | [7] > 100 µM | [18] > 100 µM | [10] > 100 µM | [11] > 100 µM | [12] > 100 µM | [13] > 100 µM | [14] > 100 µM | [16] > 100 µM

COc1cc(CO)c(CC(=O)NCCCc2ccccc2)cc1OC
inactive: [1] > 100 µM | [2] > 100 µM | [3] > 100 µM | [17] 38 µM | [4] > 100 µM | [5] > 100 µM | [6] > 100 µM | [7] > 100 µM | [8] > 100 µM | [9] > 100 µM | [18] > 100 µM | [10] > 100 µM | [12] 67.9 µM | [13] > 100 µM | [14] > 100 µM | [15] > 100 µM | [16] > 100 µM

CCOC(=O)c1csc(NC(=O)CCN2CCCCC2)n1
inactive: [2] > 100 µM | [3] > 100 µM | [17] > 100 µM | [4] > 100 µM | [5] > 100 µM | [6] > 100 µM | [7] > 100 µM | [8] > 100 µM | [9] > 100 µM | [18] > 100 µM | [10] > 100 µM | [11] > 100 µM | [19] > 100 µM | [12] > 100 µM | [14] > 100 µM | [15] > 100 µM | [16] > 100 µM

COc1ccc(C(C2C(=O)N(C)C(=O)N(C)C2=O)C(F)(F)C(=O)N(C)C)cc1 (stereo unspecified)
inactive: [1] > 100 µM | [2] > 100 µM | [3] > 100 µM | [7] > 100 µM | [8] > 100 µM | [9] > 100 µM | [18] > 100 µM | [10] > 100 µM | [11] > 100 µM | [19] > 100 µM | [12] > 100 µM | [13] > 100 µM | [14] > 100 µM | [15] > 100 µM | [16] > 100 µM

S=C(Cc1ccc2c(c1)Sc1ccccc1O2)N1CCOCC1
inactive: [1] 56.9 µM | [3] 30.3 µM | [17] 16 µM | [4] 24.6 µM | [5] 33.7 µM | [6] > 100 µM | [7] 23.8 µM | [8] 46.2 µM | [9] 23.5 µM | [18] 49.5 µM | [10] 30.5 µM | [11] 34.8 µM | [19] 22.6 µM | [13] 18.7 µM | [14] 31.8 µM | [15] 31.4 µM | [16] 28.6 µM

O=CNCNCCO
inactive: [1] > 100 µM | [2] > 100 µM | [3] > 100 µM | [17] 20.7 µM | [4] 55.1 µM | [5] > 100 µM | [6] > 100 µM | [7] > 100 µM | [8] > 100 µM | [9] > 100 µM | [18] > 100 µM | [10] > 100 µM | [11] 31.7 µM | [12] > 100 µM | [13] > 100 µM | [14] > 100 µM | [16] 46.9 µM

C=Cc1cnc([N+](=O)[O-])n1C
inactive: [1] > 100 µM | [2] 46.1 µM | [3] > 100 µM | [17] 48.6 µM | [4] > 100 µM | [7] 38.1 µM | [8] 98.9 µM | [9] 56.8 µM | [18] 69.7 µM | [10] > 100 µM | [11] 40.1 µM | [19] 35.2 µM | [12] 83.2 µM | [14] > 100 µM | [15] > 100 µM

Source: ChEMBL document CHEMBL1201862, “PubChem BioAssay data set” (2004)
